Assay results as given in patent US12486218B2, “Compounds advantageous in the treatment of central nervous system diseases and disorders” (AurimMed Pharma, Inc., priority 2008, dated 2025).

Legend:
[1] = test system: type II SMA fibroblasts (GM03813); assay: SMN protein localization, gem counting in type II SMA fibroblasts; format: cell-based; settings: 100 nM-10 μM, 5 days
Procedure: To validate the SMN2 promoter and exon 7 screens, the effects of compounds H, H (acid form), AY, F, BX, and BY were evaluated on the basis of expression and localization of SMN protein in type II SMA fibroblasts (GM03813). In a normal cell, SMN protein localized within the nucleus to discreet foci known as gems. In SMN-deficient SMA cells, the number of gems is greatly diminished. Although the function of gems is unknown, it is believed that they are somehow involved in the snRNP assembly function of SMN. Gem counting can, therefore, be considered an assay for SMN function.
GM03813 fibroblasts were treated with different doses (100 nM-10 μM) of compounds H, H (acid form), AY, F, BX, and BY for 5 days. SMN immunostaining was then completed on these cells and the number of gems was counted in 100 randomly-selected nuclei. […] In fact, the gem counts at the highest dose of compound H approach those observed for carrier fibroblasts (GM03814). When compared against treatment with 1 μM D157495—a D156844 derivative, all of the compounds tested performed as well as or, even better than D157495.

mice [2] = assay: 6 Hz (minimal clonic seizure) model, mice i.p.; format: in vivo; settings: mice i.p.
in vivo = settings: mouse, ip
Procedure: The animal testing was performed according to methods known in the relevant art.

[3] = test system: rat dopaminergic N27 cells; assay: N27 protection assay against oxidative stress (H2O2 or MPP+; MTT and LDH); format: cell-based; settings: drug 24 hours before 200 μM H2O2 or 640 μM MPP+
Excerpt: FIGS. 20A-25D data are shown illustrating neuroprotective and neuroregenerative effects observed in rat dopaminergic N27 cells. Rat dopaminergic N27 cells are commonly used in in vitro and in vivo model systems for studying Parkinson's disease. Parkinson's disease is a neurodegenerative disorder of the central nervous system that affects more than 6 million people worldwide. The motor symptoms of Parkinson's disease result from the death of dopamine generating cells in the substantia nigra, a region of the midbrain.
The N27 rat dopaminergic neuron cell line was harvested from E12 rat mesencephalic tissue and was transfected with SV40 to immortalize the cell line. The N27 cell line, when injected into the striata of 6-hydroxydopamine-lesioned rats (an animal model of PD) caused a time-dependent improvement in neurological deficits. This immortalized cell line has been carefully characterized in studies of dopamine biosynthesis, neurotoxicity and used as a dopaminergic neuron model studies.
The N27 in vitro Parkinson's disease model included a test of cell viability and cell toxicity in response to exposure to oxidative stress (e.g., either 200 μM H2O2 or 640 μM MPP+).
Cell viability was tested using the MTT assay. The MTT assay is a colorimetric analysis based on the activities of mitochondrial NAD(P)H-dependent cellular oxidoreductase enzymes. These enzymes are capable of reducing the tetrazolium dye, MTT [3-(4,5-dimethylthiazol-2-yl)-2,5-diphenyltetrazolium] bromide, to an insoluble formazan (purple). […] More viable cells equal more accumulation of the insoluble formazan dye.
Cell toxicity was tested using the […] (LDH) assay. Cells that are stressed secrete LDH. In general, the more cells are stressed, the LDH they secrete into their media. The LDH assay is a reliable colorimetric assay to measure quantitatively the […] (LDH) that is released into the cell culture media from damaged cells as a biomarker for cytotoxicity and cytolysis.
FIGS. 20A-25D present data from two types of assays: protection and recovery assays. In the protection assays, the drug candidate was applied to the cells at various concentrations for 24 hours, followed by the exposure to oxidative stress (either 200 μM H2O2 or 640 μM MPP+) for measuring neuroprotective effect. H2O2 provides a broad measure of oxidative stress, while MPP+ gives a more specific oxidative stress to dopaminergic neurons.
The protection assay results are shown in panels A-C of FIGS. 20-25 In the recovery assays, the cells were first damaged by exposure to H2O2 and then various concentrations of the drug were applied to the cells. The results for the recovery assays are shown the D panels of FIGS. 20-25.

mice [4] = assay: Mouse formalin pain model; format: in vivo; settings: 76 mg/kg i.p., at 0.5 hours
rats = assay: MES test, rats p.o.; format: in vivo; settings: at 30 mg/kg
mice [5] = assay: Maximal Electroshock Seizure (MES) test, mice i.p.; format: in vivo; settings: for MES, fraction of animals: mice i.p.; for activity in the MES test: mice, at 100 mg/kg
mice [6] = assay: Effects observed in mice after i.p. injection (CNS stimulation, diarrhea); format: in vivo
Procedure: In addition, two further tertiary amide compounds, BJ and BT, produced diarrhea in the mice 30 minutes after i.p. injection of 100 mg/kg of each.

SMN2 promoter = SMN2 promoter β-lactamase reporter assay in NSC34 motor neuron-like cells; format: cell-based; settings: treatment for 19 hours at a concentration of 1 μM
Procedure: FIG. 30 illustrates a screen for SMN2 expression of a number of compounds described herein.
SMN2 promoter activity was measured using NSC34 motor neuron-like cells stably transfected with a β-lactamase (BLA) reporter gene under the control of a 3.4-kilobase fragment of the SMN2 promoter. D156844 was used as a positive control for this assay.

mice [7] = assay: Subcutaneous Metrazol Seizure threshold (s.c. MET) test, mice i.p.; format: in vivo; settings: mice; at 300 mg/kg

CC(CC(=O)O)c1ccc(OC(F)(F)F)cc1 (racemic) [H (acid form)]
gem counts (SMN immunostaining, 100 nuclei) [1]: increase gem counts in a dose-dependent manner | relative potency in increasing gem counts [1]: most potent

C[C@@H](CC(N)=O)c1ccc(OC(F)(F)F)cc1 (single isomer, unassigned) [BY, S-(+)-3-(4-Trifluoromethoxy-phenyl)butyramide]
6 Hz (32 mA), fraction of animals (mice [2]; 100 mg/kg @ 0.25 hr): 1/4 | 6 Hz (32 mA), fraction of animals (mice [2]; 100 mg/kg @ 0.5 hr): 2/4 | TD50 at 0.25 hr (in vivo): 104 mg/kg | neuroprotective effect against H2O2 and MPP+ oxidative stresses (MTT and LDH assays) [3]: potent dose-dependent neuroprotective effects | gem counts (SMN immunostaining, 100 nuclei) [1]: increase gem counts in a dose-dependent manner | pain response, acute phase (mice [4]): 53 % of the control | pain response, inflammatory phase (mice [4]): 24 % of the control

CCN(C)C(=O)CC(C)c1ccc(OC(F)(F)F)cc1 (stereo not shown) [BE, N-Ethyl-N-methyl-3-(4-trifluoromethoxy-phenyl)-butyramide]
activity in the MES test (rats): activity | 6 Hz (32 mA), fraction of animals (mice [2]; 100 mg/kg @ 0.5 hr): 2/4 @ 0.5 hr, | MES, fraction of animals (mice [5]; 100 mg/kg @ 0.5 hr): 1/3 @ | activity in the MES test (mice [5]): activity | CNS-stimulating effect observed (mice [6]; mice, 300 mg/kg i.p., 30 minutes after injection): tremors

CC(CC(=O)N1CCCCC1)c1ccc(OC(F)(F)F)cc1 (stereo not shown) [BH, 1-Piperidin-1-yl-3-(4-trifluoromethoxy-phenyl)-butan-1-one]
SMN2 promoter activity (SMN2 promoter): increased SMN2 promoter activity | activity in the s.c. MET test (mice [7]): activity | CNS-stimulating effect observed (mice [6]; mice, on injection): vocalization and hyperactivity | duration of vocalization and hyperactivity (mice [6]; mice, on injection): 5 to 6 min

CC(CC(=O)N1CCN(C)CC1)c1ccc(OC(F)(F)F)cc1.Cl (stereo not shown) [BJ, 1-(4-Methyl-piperazin-1-yl)-3-(4-trifluoromethoxy-phenyl)-butan-1-one hydrochloride]
activity in the MES test (rats): activity | MES, fraction of animals (mice [5]; 100 mg/kg @ 0.25 hr): 2/3 @ | activity in the MES test (mice [5]): activity | effect produced in the mice (mice [6]; 30 minutes after i.p. injection of 100 mg/kg): diarrhea
